In patent publication US20230348442A1, “GALECTIN-3 INHIBITING 2-HYDROXYCYCLOALKANE-1-CARBAMOYL DERIVATIVES” (Idorsia Pharmaceuticals Ltd, priority 2020, published 2023):

Biological target: human Gal-3 (hGal-3) (Homo sapiens (Human), UniProt P17931)
Assay: competitive binding assay: binding of biotinylated hGal-3 to microplate-adsorbed asialofetuin (ASF), spectrophotometric
Settings: Activity on hGal-3; mean values of several measurements
How it was run: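 Compounds diluted in DMSO competed with biotinylated hGal-3 or hGal-1 (300-1000 ng/mL) for binding to plate-adsorbed asialofetuin for 3 h at 4° C. Bound galectin was detected with streptavidin-peroxidase (80 ng/mL, 1 h, 4° C) and ABTS substrate; IC50 reported as mean of several measurements.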

human Gal-3 (hGal-3), sequence (P17931 whole entry): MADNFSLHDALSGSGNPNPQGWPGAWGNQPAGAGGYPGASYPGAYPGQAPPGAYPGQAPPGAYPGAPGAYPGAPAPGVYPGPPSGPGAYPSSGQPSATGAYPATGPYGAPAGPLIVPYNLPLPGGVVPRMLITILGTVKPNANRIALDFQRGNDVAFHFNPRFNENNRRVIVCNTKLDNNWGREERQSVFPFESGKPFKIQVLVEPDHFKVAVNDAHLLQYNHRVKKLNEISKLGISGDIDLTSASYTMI

| IC50 | SMILES |
| --- | --- |
| 174 nM | CO[C@@H]1[C@@H](n2cc(-c3cc(F)c(Br)c(F)c3)nn2)[C@@H](O)[C@@H](CO)O[C@H]1C(=O)N(c1cc(Cl)cc(C#N)c1)[C@@H]1CC[C@H]1O [Example 2.6.4R, (2R,3R,4S,5R,6R)-4-(4-(4-bromo-3,5-difluorophenyl)-1H-1,2,3-triazol-1-yl)-N-(3-chloro-5-cyanophenyl)-5-hydroxy-N-((1R,2R)-2-hydroxycyclobutyl)-6-(hydroxymethyl)-3-methoxytetrahydro-2H-pyran-2-carboxamide] |
| 70.9 nM | CO[C@@H]1[C@@H](n2cc(-c3cc(F)c(Br)c(F)c3)nn2)[C@@H](O)[C@@H](CO)O[C@H]1C(=O)N(c1cc(Br)cc(C#N)c1)[C@H]1CC[C@@H]1O [Example 2.6.5, (2R,3R,4S,5R,6R)-4-(4-(4-bromo-3,5-difluorophenyl)-1H-1,2,3-triazol-1-yl)-N-(3-bromo-5-cyanophenyl)-5-hydroxy-N-((1S,2S)-2-hydroxycyclobutyl)-6-(hydroxymethyl)-3-methoxytetrahydro-2H-pyran-2-carboxamide] |
| 303 nM | CO[C@@H]1[C@@H](n2cc(-c3cc(F)c(Br)c(F)c3)nn2)[C@@H](O)[C@@H](CO)O[C@H]1C(=O)N(c1cc(Br)cc(C#N)c1)[C@@H]1CC[C@H]1O [Example 2.6.5R, (2R,3R,4S,5R,6R)-4-(4-(4-bromo-3,5-difluorophenyl)-1H-1,2,3-triazol-1-yl)-N-(3-bromo-5-cyanophenyl)-5-hydroxy-N-((1R,2R)-2-hydroxycyclobutyl)-6-(hydroxymethyl)-3-methoxytetrahydro-2H-pyran-2-carboxamide] |
| 183 nM | CO[C@@H]1[C@@H](n2cc(-c3cc(F)c(Br)c(F)c3)nn2)[C@@H](O)[C@@H](CO)O[C@H]1C(=O)N(c1cc(F)cc(C#N)c1)[C@H]1CC[C@@H]1O [Example 2.6.7, (2R,3R,4S,5R,6R)-4-(4-(4-bromo-3,5-difluorophenyl)-1H-1,2,3-triazol-1-yl)-N-(3-cyano-5-fluorophenyl)-5-hydroxy-N-((1S,2S)-2-hydroxycyclobutyl)-6-(hydroxymethyl)-3-methoxytetrahydro-2H-pyran-2-carboxamide] |
| 359 nM | CO[C@@H]1[C@@H](n2cc(-c3cc(F)c(Br)c(F)c3)nn2)[C@@H](O)[C@@H](CO)O[C@H]1C(=O)N(c1cc(F)cc(C#N)c1)[C@@H]1CC[C@H]1O [Example 2.6.7R, (2R,3R,4S,5R,6R)-4-(4-(4-bromo-3,5-difluorophenyl)-1H-1,2,3-triazol-1-yl)-N-(3-cyano-5-fluorophenyl)-5-hydroxy-N-((1R,2R)-2-hydroxycyclobutyl)-6-(hydroxymethyl)-3-methoxytetrahydro-2H-pyran-2-carboxamide] |
| 78.6 nM | CO[C@@H]1[C@@H](n2cc(-c3cc(F)c(F)c(Cl)c3)nn2)[C@@H](O)[C@@H](CO)O[C@H]1C(=O)N(c1cc(Cl)cc(C#N)c1)[C@H]1CC[C@@H]1O [Example 2.7.4, (2R,3R,4S,5R,6R)-4-(4-(3-chloro-4,5-difluorophenyl)-1H-1,2,3-triazol-1-yl)-N-(3-chloro-5-cyanophenyl)-5-hydroxy-N-((1S,2S)-2-hydroxycyclobutyl)-6-(hydroxymethyl)-3-methoxytetrahydro-2H-pyran-2-carboxamide] |
| 253 nM | CO[C@@H]1[C@@H](n2cc(-c3cc(F)c(F)c(Cl)c3)nn2)[C@@H](O)[C@@H](CO)O[C@H]1C(=O)N(c1cc(Cl)cc(C#N)c1)[C@@H]1CC[C@H]1O [Example 2.7.4R, (2R,3R,4S,5R,6R)-4-(4-(3-chloro-4,5-difluorophenyl)-1H-1,2,3-triazol-1-yl)-N-(3-chloro-5-cyanophenyl)-5-hydroxy-N-((1R,2R)-2-hydroxycyclobutyl)-6-(hydroxymethyl)-3-methoxytetrahydro-2H-pyran-2-carboxamide] |
| 80.3 nM | CO[C@@H]1[C@@H](n2cc(-c3cc(F)c(F)c(Cl)c3)nn2)[C@@H](O)[C@@H](CO)O[C@H]1C(=O)N(c1cc(Br)cc(C#N)c1)[C@H]1CC[C@@H]1O [Example 2.7.5, (2R,3R,4S,5R,6R)-N-(3-bromo-5-cyanophenyl)-4-(4-(3-chloro-4,5-difluorophenyl)-1H-1,2,3-triazol-1-yl)-5-hydroxy-N-((1S,2S)-2-hydroxycyclobutyl)-6-(hydroxymethyl)-3-methoxytetrahydro-2H-pyran-2-carboxamide] |
| 232 nM | CO[C@@H]1[C@@H](n2cc(-c3cc(F)c(F)c(Cl)c3)nn2)[C@@H](O)[C@@H](CO)O[C@H]1C(=O)N(c1cc(Br)cc(C#N)c1)[C@@H]1CC[C@H]1O [Example 2.7.5R, (2R,3R,4S,5R,6R)-N-(3-bromo-5-cyanophenyl)-4-(4-(3-chloro-4,5-difluorophenyl)-1H-1,2,3-triazol-1-yl)-5-hydroxy-N-((1R,2R)-2-hydroxycyclobutyl)-6-(hydroxymethyl)-3-methoxytetrahydro-2H-pyran-2-carboxamide] |
| 131 nM | CO[C@@H]1[C@@H](n2cc(-c3ccc(Cl)c(Cl)c3)nn2)[C@@H](O)[C@@H](CO)O[C@H]1C(=O)N(c1cc(Cl)cc(C#N)c1)[C@H]1CC[C@@H]1O [Example 2.8.4, (2R,3R,4S,5R,6R)-N-(3-chloro-5-cyanophenyl)-4-(4-(3,4-dichlorophenyl)-1H-1,2,3-triazol-1-yl)-5-hydroxy-N-((1S,2S)-2-hydroxycyclobutyl)-6-(hydroxymethyl)-3-methoxytetrahydro-2H-pyran-2-carboxamide] |

More lines, now with the values behind:

| SMILES | IC50 |
| --- | --- |
| COc1cc(-c2cn([C@H]3[C@@H](O)[C@@H](CO)O[C@@H](C(=O)N(c4cc(C)cc(Br)c4)[C@H]4CC[C@@H]4O)[C@@H]3OC)nn2)cc(F)c1F [Example 2.3.12, (2R,3R,4S,5R,6R)-N-(3-bromo-5-methylphenyl)-4-(4-(3,4-difluoro-5-methoxyphenyl)-1H-1,2,3-triazol-1-yl)-5-hydroxy-N-((1S,2S)-2-hydroxycyclobutyl)-6-(hydroxymethyl)-3-methoxytetrahydro-2H-pyran-2-carboxamide] | 116 nM |
| COc1cc(-c2cn([C@H]3[C@@H](O)[C@@H](CO)O[C@@H](C(=O)N(c4cc(C)cc(Br)c4)[C@@H]4CC[C@H]4O)[C@@H]3OC)nn2)cc(F)c1F [Example 2.3.12R, (2R,3R,4S,5R,6R)-N-(3-bromo-5-methylphenyl)-4-(4-(3,4-difluoro-5-methoxyphenyl)-1H-1,2,3-triazol-1-yl)-5-hydroxy-N-((1R,2R)-2-hydroxycyclobutyl)-6-(hydroxymethyl)-3-methoxytetrahydro-2H-pyran-2-carboxamide] | 311 nM |
| CO[C@@H]1[C@@H](n2cc(-c3cc(F)c(C)c(F)c3)nn2)[C@@H](O)[C@@H](CO)O[C@H]1C(=O)N(c1cc(Cl)cc(Cl)c1)[C@H]1CC[C@@H]1O [Example 2.4.2, (2R,3R,4S,5R,6R)-N-(3,5-dichlorophenyl)-4-(4-(3,5-difluoro-4-methylphenyl)-1H-1,2,3-triazol-1-yl)-5-hydroxy-N-((1S,2S)-2-hydroxycyclobutyl)-6-(hydroxymethyl)-3-methoxytetrahydro-2H-pyran-2-carboxamide] | 38 nM |
| CO[C@@H]1[C@@H](n2cc(-c3cc(F)c(C)c(F)c3)nn2)[C@@H](O)[C@@H](CO)O[C@H]1C(=O)N(c1cc(Cl)cc(Cl)c1)[C@@H]1CC[C@H]1O [Example 2.4.2R, (2R,3R,4S,5R,6R)-N-(3,5-dichlorophenyl)-4-(4-(3,5-difluoro-4-methylphenyl)-1H-1,2,3-triazol-1-yl)-5-hydroxy-N-((1R,2R)-2-hydroxycyclobutyl)-6-(hydroxymethyl)-3-methoxytetrahydro-2H-pyran-2-carboxamide] | 134 nM |
| CO[C@@H]1[C@@H](n2cc(-c3cc(F)c(Cl)c(F)c3)nn2)[C@@H](O)[C@@H](CO)O[C@H]1C(=O)N(c1cc(Cl)cc(C#N)c1)[C@H]1CC[C@@H]1O [Example 2.5.4, (2R,3R,4S,5R,6R)-4-(4-(4-chloro-3,5-difluorophenyl)-1H-1,2,3-triazol-1-yl)-N-(3-chloro-5-cyanophenyl)-5-hydroxy-N-((1S,2S)-2-hydroxycyclobutyl)-6-(hydroxymethyl)-3-methoxytetrahydro-2H-pyran-2-carboxamide] | 71.4 nM |
| CO[C@@H]1[C@@H](n2cc(-c3cc(F)c(Cl)c(F)c3)nn2)[C@@H](O)[C@@H](CO)O[C@H]1C(=O)N(c1cc(Cl)cc(C#N)c1)[C@@H]1CC[C@H]1O [Example 2.5.4R, (2R,3R,4S,5R,6R)-4-(4-(4-chloro-3,5-difluorophenyl)-1H-1,2,3-triazol-1-yl)-N-(3-chloro-5-cyanophenyl)-5-hydroxy-N-((1R,2R)-2-hydroxycyclobutyl)-6-(hydroxymethyl)-3-methoxytetrahydro-2H-pyran-2-carboxamide] | 193 nM |
| CO[C@@H]1[C@@H](n2cc(-c3cc(F)c(Cl)c(F)c3)nn2)[C@@H](O)[C@@H](CO)O[C@H]1C(=O)N(c1cc(Br)cc(C#N)c1)[C@H]1CC[C@@H]1O [Example 2.5.5, (2R,3R,4S,5R,6R)-N-(3-bromo-5-cyanophenyl)-4-(4-(4-chloro-3,5-difluorophenyl)-1H-1,2,3-triazol-1-yl)-5-hydroxy-N-((1S,2S)-2-hydroxycyclobutyl)-6-(hydroxymethyl)-3-methoxytetrahydro-2H-pyran-2-carboxamide] | 47 nM |
| CO[C@@H]1[C@@H](n2cc(-c3cc(F)c(Cl)c(F)c3)nn2)[C@@H](O)[C@@H](CO)O[C@H]1C(=O)N(c1cc(Br)cc(C#N)c1)[C@@H]1CC[C@H]1O [Example 2.5.5R, (2R,3R,4S,5R,6R)-N-(3-bromo-5-cyanophenyl)-4-(4-(4-chloro-3,5-difluorophenyl)-1H-1,2,3-triazol-1-yl)-5-hydroxy-N-((1R,2R)-2-hydroxycyclobutyl)-6-(hydroxymethyl)-3-methoxytetrahydro-2H-pyran-2-carboxamide] | 184 nM |
| CO[C@@H]1[C@@H](n2cc(-c3cc(F)c(Br)c(F)c3)nn2)[C@@H](O)[C@@H](CO)O[C@H]1C(=O)N(c1cc(Cl)cc(C#N)c1)[C@H]1CC[C@@H]1O [Example 2.6.4, (2R,3R,4S,5R,6R)-4-(4-(4-bromo-3,5-difluorophenyl)-1H-1,2,3-triazol-1-yl)-N-(3-chloro-5-cyanophenyl)-5-hydroxy-N-((1S,2S)-2-hydroxycyclobutyl)-6-(hydroxymethyl)-3-methoxytetrahydro-2H-pyran-2-carboxamide] | 80 nM |
